The source of these data is patent publication US11266645B2, “Methods for treating lymphoma” (Alexion Pharmaceuticals, Inc., priority 2018, dated 2022).

pIC50: −log10 of the molar value. Like-named read-outs stand apart in the source and are kept apart here.

Holding throughout (type): cell-based, human
Assay [1] relates to SYK-mediated BCR signaling. Nature of the assay: Whole blood BCR signaling assay after oral dosing (pSYK Y525/526, pERK Y204, pAKT S473). To be noted: for pIC50: Homo sapiens. The method, then: (§1) For PD assessments, serial blood samples were drawn into lithium-heparin vacutainer tubes on Day 1 prior to dosing and again at 0.5, 1, 2, and 4 hours post-dose; on Day 8 at pre-dose and 2 hours post-dose; and Day 28 prior to dosing. Multiple assays were performed using the Day 1 and Day 8 PD samples. SYK-mediated BCR signaling in whole blood was measured prior to and post-dosing by stimulating 100 μL whole blood with 2 μL of anti-human IgD (IgG fraction) and 10 μg anti-human IgM for 10 minutes at 37° C., measuring the induction of pSYK Y525/526, pAKT S473, and pERK Y204. Similarly, whole blood was stimulated with 10 ng/mL of IL-2 (JAK1/3-dependent), IL-4 (JAK1/3-dependent), IL-6 (JAK1/TYK2-dependent) or GM-CSF (JAK2-dependent) for 20 minutes, measuring the induction of pSTAT5 Y694 in T-cells and NK cells, the induction of pSTAT6 Y641 in B cells, T-cells, NK cells, and monocytes, the induction of pSTAT3 Y705 in monocytes, B cells, and T-cells, and the induction of pSTAT5 Y694 in monocytes, respectively. […] With blood samples from the CLL patients only, tumor cell surface expression of CD5, CD69, CD86, and CXCR4 pre-dose on days 1 and 28 were monitored. […] For each assay, data were collected using an LSR II instrument (BD Bioscience, San Jose, Calif.) and analyzed using Flowjo software (Flowjo LLC, Ashland, Oreg.). […]
The data were analyzed using the statistical language R and the accessory packages ggplot2 (Wickham, H., Elegant Graphics for Data Analysis. 2016: Springer-Verlag) and drc (Ritz, C., et al., Dose-Response Analysis Using R. PLoS One, 2015. 10(12): p. e0146021). For cell signaling assays, percent inhibition was determined by normalizing the receptor-induced phosphorylation events mean fluorescent intensity (MFI) to that of pre-dose receptor-induced MFI. The resulting relative activities were analyzed by nonlinear regression to a 3-parameter log-logistic function with an upper and lower limit set at 100 and 0%. […] The significance of the relation between maximum tumor response and change in a specific biomarker was evaluated using Spearman-Rank-correlation and p value.

The subject of assay [2] is JAK2-dependent STAT5 phosphorylation. The assay is described as follows: Whole blood GM-CSF stimulation, STAT5 phosphorylation. To be noted: patient samples. The method, then: as §1, with “Y204.” for “Y204. Similarly, whole blood was stimulated with 10 ng/mL of IL-2 (JAK1/3-dependent), IL-4 (JAK1/3-dependent), IL-6 (JAK1/TYK2-dependent) or GM-CSF (JAK2-dependent) for 20 minutes, measuring the induction of pSTAT5 Y694 in T-cells and NK cells, the induction of pSTAT6 Y641 in B cells, T-cells, NK cells, and monocytes, the induction of pSTAT3 Y705 in monocytes, B cells, and T-cells, and the induction of pSTAT5 Y694 in monocytes, respectively.”
The potency and selectivity for target inhibition following oral dosing in patients using a variety of whole blood assays was measured.

The subject of assay [3] is Follicular lymphoma (FL) cell lines SU-DHL6, DOHH2, WSU-FSCCL. Nature of the assay: FL cell line assays (CellTiter Glo, Edu, caspase 3, immunoblot, phosphoflow). As for the experimental part:
CellTiter Glo, Edu and caspase 3 assays were used to examine the effects of cerdulatinib alone and in combination with venetoclax. Percent inhibition was determined relative to vehicle control. Edu incorporation and caspase 3 cleavage were performed using FACS-based assays and CellTiter Glo in a 96-well black plate.
Follicular lymphoma (FL) cell lines SU-DHL6, DOHH2, or WSU-FSCCL were treated with cerdulatinib in the presence or absence of venetoclax at the indicated concentrations for 24-72 hours and analyzed by Edu, CellTiter-Glo, Annexin V/PI, and CellTiter-Glo).
Whole cell lysates were subjected to immunoblotting on 12% gels and probed with the indicated antibodies using established protocols. Phosphoflow cytometry was performed on an LSRII following cell fixing in 4% PFA and permeabilzation with 50% methanol. Phospho-antibody staining was performed for 1 hour at room temperature.
(In general: In ATP-based viability assays light output follows the ATP content of the culture.)

For the compound `CCS(=O)(=O)N1CCN(c2ccc(Nc3ncc(C(N)=O)c(NC4CC4)n3)cc2)CC1` [cerdulatinib, 4-(cyclopropylamino)-2-((4-(4-(ethylsulfonyl)piperazin-1-yl)phenyl)amino)pyrimidine-5-carboxamide], the negative logarithm of the IC50 (pIC50) in assay [1] (po, estimated from PK/PD relationships, whole blood, read-out: IC50, measures of BCR-signaling) was 6.14 to 6.48; in assay [1] (following oral dosing, lower and upper limit confidence intervals for ERK and AKT, read-out: IC50 against BCR signaling) it was 6.13 to 6.77. The “inhibition of BCR-induced pSYK Y525/526, pERK Y204 and pAKT S473” value in assay [1] (at tolerated exposures) is recorded as “High level inhibition”. For the same compound, the “inhibition of GM-CSF induced JAK2-dependent STAT5 phosphorylation” value in assay [2] is “sparing JAK2”. The “basal expression of phospho (p)AKT and pERK, anti-IgM and anti-IgG mediated signaling” value in assay [3] (FL cell lines) is “inhibit”. Further, the Bcl-2 expression result in assay [3] (FL lines) is “minimal impact”. In assay [3] (WSU and DHL6 cells), the “Bim RNA level” value is recorded as “increased”. Moreover, the “Mcl-1 RNA levels” value in assay [3] (cerdulatinib alone) is “remained unchanged”. Further, the Mcl-1 expression result in assay [3] (most pronounced in WSU-FSCCL cells) was “down modulation”.

As a reminder, the pIC50 is −log10 of the IC50, conventionally taken in molar units.
